Article PMC7727793, “Aggregation Behavior, Antibacterial Activity and Biocompatibility of Catanionic Assemblies Based on Amino Acid-Derived Surfactants” (International Journal of Molecular Sciences, 2020)

Columns and labels:
[1] = system: Klebsiella pneumoniae ATCC 13883; test: Broth microdilution MIC; format: cell-based; conditions: 24 h, 37 °C, total surfactant concentration
[2] = system: Escherichia coli ATCC 25922; test: Broth microdilution MIC; format: cell-based; conditions: 24 h, 37 °C, total surfactant concentration
A431 cell line [3] = test: MTT cell viability assay; format: cell-based
Protocol: The murine Swiss albino fibroblast (3T3), the squamous carcinoma (A431), the immortal human keratinocyte (HaCaT) and the human epithelial carcinoma (HeLa) cell lines were obtained from Celltec UB. Cells were grown in Dulbecco’s Modified Eagle’s Medium (DMEM) (4.5 g/L glucose) supplemented with 10% (v/v) fetal bovine serum (FBS), 1% (v/v) L-glutamine solution (200 mM) and 1% (v/v) penicillin-streptomycin solution (10,000 U/mL penicillin and 10 mg/mL streptomycin) at 37 °C and 5% CO2 (CO2 Incubator Nuaire, Plymouth, MN, USA). All the biological materials were purchased from Lonza (Verviers, Belgium). Cells were cultured in 75 cm^2 culture flasks (TPP, Trasadingen, Switzerland) and were routinely split using trypsin-EDTA (ethylenediaminetetraacetate) solution (170,000 U/L trypsin and 0.2 g/L EDTA) (Lonza, Verviers, Belgium) when cells are approximately 80% confluent. […]
In this assay, living cells reduce the yellow tetrazolium salt, 2,5-Diphenyl-3, -(4,5-dimethyl-2-thiazolyl) tetrazolium bromide (MTT), to insoluble purple formazan crystals. […] Then, the absorbance of the resulting solutions was measured at 550 nm using a Bio-Rad 550 microplate reader (Hercules, California, USA). The effect of each treatment was calculated as the percentage of tetrazolium salt reduction by viable cells against the untreated cell control (cells with medium only).

[4] = Surface tension, hanging drop tensiometer; format: physicochemical; conditions: 25 °C; for Surface tension (γ) at CMC: estimated error 1 mNm^−1; for CMC obtained by surface tension (CMCγ): estimated error 10%; for Area per molecule (Am): Gibbs adsorption isotherm using n = 1, estimated error 15%
Protocol: Surface tension was measured at 25 °C using a homemade hanging drop tensiometer. Samples were hanged from a straight-cut Teflon tube and the size and shape were obtained from pictures as a function of time. Surface tension was obtained from fitting the drop profile to the appropriate Young-Laplace equations. See Sorrenti et al. for more details. From a concentrated clear solution, successive dilutions were made to cover the adequate range of surface tension changes. The surface tension of […]14 was measured in three pH conditions: (a) unbuffered, using water as solvent, (b) buffered at pH = 2, using 10 mM HCl solution to prepare the concentrated sample and their dilutions and (c) buffered at pH = 12, using 10 mM […] to prepare the concentrated solution and their dilutions.

HaCaT cell line = test: MTT cell viability assay; format: cell-based, human; conditions: 24 h
Protocol: (§1) The murine Swiss albino fibroblast (3T3), the squamous carcinoma (A431), the immortal human keratinocyte (HaCaT) and the human epithelial carcinoma (HeLa) cell lines were obtained from Celltec UB. Cells were grown in Dulbecco’s Modified Eagle’s Medium (DMEM) (4.5 g/L glucose) supplemented with 10% (v/v) fetal bovine serum (FBS), 1% (v/v) L-glutamine solution (200 mM) and 1% (v/v) penicillin-streptomycin solution (10,000 U/mL penicillin and 10 mg/mL streptomycin) at 37 °C and 5% CO2 (CO2 Incubator Nuaire, Plymouth, MN, USA). All the biological materials were purchased from Lonza (Verviers, Belgium). Cells were cultured in 75 cm^2 culture flasks (TPP, Trasadingen, Switzerland) and were routinely split using trypsin-EDTA (ethylenediaminetetraacetate) solution (170,000 U/L trypsin and 0.2 g/L EDTA) (Lonza, Verviers, Belgium) when cells are approximately 80% confluent.
(§2) 3T3 and HaCaT cells (1 × 10^5 cells/ mL) and HeLa and A431 cells (5 × 10^4 cells/mL) were grown at the defined densities into the central 60 wells of a 96-well plate. Cells were incubated for 24 h under 5% CO2 at 37 °C. Then, the spent medium was removed, and cells were incubated during 24 h with the corresponding surfactant systems, previously diluted 50% (v/v) in DMEM medium supplemented with 5% FBS (100 µL).
(§3) In this assay, living cells reduce the yellow tetrazolium salt, 2,5-Diphenyl-3, -(4,5-dimethyl-2-thiazolyl) tetrazolium bromide (MTT), to insoluble purple formazan crystals. After the cells were incubated for 24 h with the corresponding systems, the medium was removed and 100 µL (5 mg/mL) of 2,5-Diphenyl-3,-(4,5-dimethyl-2-thiazolyl) tetrazolium bromide (MTT) (Sigma–Aldrich, St. Louis, MO, USA) in phosphate-buffered saline (PBS) (Lonza, Verviers, Belgium), diluted 1:10 in culture medium without phenol red and absence of FBS (Lonza, Verviers, Belgium), was added to the cells. The plates were incubated for 3 h, after which the medium was removed. Thereafter, 100 µL of dimethylsulfoxide (DMSO) (Sigma–Aldrich, St. Louis, MO, USA) was added to each well to dissolve the purple formazan crystals. Plates were then placed in a microtiter-plate shaker for 5 min at room temperature to help the total dissolution. Then, the absorbance of the resulting solutions was measured at 550 nm using a Bio-Rad 550 microplate reader (Hercules, California, USA). The effect of each treatment was calculated as the percentage of tetrazolium salt reduction by viable cells against the untreated cell control (cells with medium only).

HeLa cell line [5] = test: MTT cell viability assay; format: cell-based, human; conditions: 24 h
Protocol: as §1, §2, §3

HeLa cell line [6] = test: NRU cell viability assay; format: cell-based; conditions: Homo sapiens, 24 h
Protocol: (§4) The murine Swiss albino fibroblast (3T3), the squamous carcinoma (A431), the immortal human keratinocyte (HaCaT) and the human epithelial carcinoma (HeLa) cell lines were obtained from Celltec UB. Cells were grown in Dulbecco’s Modified Eagle’s Medium (DMEM) (4.5 g/L glucose) supplemented with 10% (v/v) fetal bovine serum (FBS), 1% (v/v) L-glutamine solution (200 mM) and 1% (v/v) penicillin-streptomycin solution (10,000 U/mL penicillin and 10 mg/mL streptomycin) at 37 °C and 5% CO2 (CO2 Incubator Nuaire, Plymouth, MN, USA). All the biological materials were purchased from Lonza (Verviers, Belgium). Cells were cultured in 75 cm^2 culture flasks (TPP, Trasadingen, Switzerland) and were routinely split using trypsin-EDTA (ethylenediaminetetraacetate) solution (170,000 U/L trypsin and 0.2 g/L EDTA) (Lonza, Verviers, Belgium) when cells are approximately 80% confluent. 3T3 and HaCaT cells (1 × 10^5 cells/ mL) and HeLa and A431 cells (5 × 10^4 cells/mL) were grown at the defined densities into the central 60 wells of a 96-well plate. Cells were incubated for 24 h under 5% CO2 at 37 °C. […] Agitation, determination of the absorbance of the extracted solution and effect of each treatment in comparison with control cells were analogous of those described in the case of the MTT method.

A431 cell line [7] = test: NRU cell viability assay; format: cell-based; conditions: Homo sapiens, A-431, 24 h
Protocol: as §4

Compound	MIC [1] [µM]	MIC [2] [µM]	IC50 (A431 cell line [3]; 24 h) [µM]	Surface tension (γ) at CMC [4] [mNm^−1]	CMC obtained by surface tension (CMCγ) [4]	Area per molecule (Am) [4] [nm^2]	IC50 (HaCaT cell line) [µM]	IC50 (HeLa cell line [5]) [µM]	IC50 (A431 cell line [3]; Homo sapiens, A-431, 24 h) [µM]	IC50 (HeLa cell line [6]) [µM]	IC50 (A431 cell line [7]) [µM]	IC50 (HaCaT cell line; Homo sapiens) [µM]	IC50 (HeLa cell line [5]; Homo sapiens) [µM]
N(π),N(τ)-bis(methyl)-L-Histidine tetradecyl amide [DMHNHC14]	113	113	22.6	33	5.2 mM	0.57	25.5	3.37					
CCCCCCCCCCCCCC(=O)O [Sodium myristate, sodium myristate]				24	5.0 ^7 mM	1.0			> 50	> 50	> 50	> 50	> 50
